Data as given in patent EP0320984A2, “1,4-Dihydropyridine derivatives” (FUJIREBIO INC., priority 1987, dated 1989).

Test system: Rabbit platelet rich plasma (PRP)
Test: Inhibitory activity on platelet aggregation in rabbit platelet rich plasma (light transmission)
Type: cell-based
Settings: added to PRP 30 minutes before agent; for Inhibitory activity on platelet aggregation, PAF: compound 3x10^-6 (unit not given), Platelet activating factor (PAF) 10 mg/ml; for Inhibitory activity on platelet aggregation, ADP / Inhibitory activity on platelet aggregation, AA / Inhibitory activity on platelet aggregation, Collagen: compound 10^-4 (unit not given); for Inhibitory activity on platelet aggregation, ADP: Adenosine diphosphate (ADP) 5 mM; for Inhibitory activity on platelet aggregation, AA: Arachidonic acid (AA) 1 mM; for Inhibitory activity on platelet aggregation, Collagen: aggregating agent collagen
Protocol: 3. Experiment for inhibitory activity on platelet aggregation in rabbit:
Rabbit platelet rich plasma (PRP) was prepared by centrifugation of the citrated blood at 380 g for 10 minutes at 20°C. Test solution (10 µl) was added to PRP (200 µl) 30 minutes before treatment of aggregation agents (10 µl). The extent of aggregation was expressed with the maximum change in light transmission for PRP and platelet poor plasma was taken as a value of 100%

Row | SMILES | Inhibitory activity on platelet aggregation, PAF [%] | Inhibitory activity on platelet aggregation, ADP [%] | Inhibitory activity on platelet aggregation, AA [%] | Inhibitory activity on platelet aggregation, Collagen [%]
1 | COC(=O)C1=C(C)NC(C)=C(C(=O)OC/C=C/c2ccc(Cn3ccnc3)cc2)C1c1cccc([N+](=O)[O-])c1 (stereo not drawn) [Example 1, (E)-3-{4-(1-imidazolylmethyl)phenyl}-2-propen-1-yl methyl 1,4-dihydro-2,6-dimethyl-4-(3-nitrophenyl)pyridine-3,5-dicarboxylate] | 35.4 | 7.3 | 26.2 | 19.5
2 | COC(=O)C1=C(C)NC(C)=C(C(=O)OC/C=C/c2ccc(Cc3cccnc3)cc2)C1c1cccc([N+](=O)[O-])c1 (stereo not drawn) [Example 2, Methyl (E)-3-{4-(3-pyridylmethyl)phenyl}-2-propen-1-yl 1,4-dihydro-2,6-dimethyl-4-(3-nitrophenyl)pyridine-3,5-dicarboxylate] | 0 | 5.5 | 12.6 | 23.5
3 | COC(=O)C1=C(C)NC(C)=C(C(=O)OC/C=C/c2ccc(-n3ccnc3)cc2)C1c1cccc([N+](=O)[O-])c1 (stereo not drawn) [Example 3, (E)-3-{4-(1-imidazolyl)phenyl}-2-propen-1-yl methyl 1,4-dihydro-2,6-dimethyl-4-(3-nitrophenyl)pylidine-3,5-dicarboxylate] | 0 | 2.2 | 19.3 | 33.2
4 | COC(=O)C1=C(C)NC(C)=C(C(=O)OC/C=C/c2ccc(Cn3ccnc3)o2)C1c1cccc([N+](=O)[O-])c1 (stereo not drawn) [Example 4, (E)-3-{5-(1-imidazolylmethyl)-2-furan}-2-propen-1-yl methyl 1,4-dihydro-2,6-dimethyl-4-(3-nitrophenyl)pyridine-3,5-dicarboxylate] | 95.6 | – | 30.8 | 30.5
5 | COC(=O)C1=C(C)NC(C)=C(C(=O)OC/C=C/c2ccc(Cn3ccnc3)s2)C1c1cccc([N+](=O)[O-])c1 (stereo not drawn) [Example 5, (E)-3-{5-(1-imidazolylmethyl)-2-thiophene}-2-propen-1-yl methyl 1,4-dihydro-2,6-dimethyl-4-(3-nitrophenyl) pyridine-3,5-dicarboxylate] | 100 | 12.0 | 33.4 | 32.3
6 | COC(=O)C1=C(C)NC(C)=C(C(=O)OC/C=C(\C)c2ccc(Cn3ccnc3)cc2)C1c1cccc([N+](=O)[O-])c1 (stereo not drawn) [Example 6] | 0 | 6.5 | 15.6 | 27.2
7 | CCOC(=O)C1=C(C)NC(C)=C(C(=O)OC/C=C/c2ccc(Cn3ccnc3)cc2)C1c1cccc([N+](=O)[O-])c1 (stereo not drawn) [Example 7, Ethyl (E)-3-{4-(1-imidazolylmethyl)phenyl}-2-propen-1-yl 1,4-dihydro-2,6-dimethyl-4-(3-nitrophenyl)pyridine-3,5-dicarboxylate] | 0 | 4.3 | 17.8 | 30.9
8 | COC(=O)C1=C(C)NC(C)=C(C(=O)OC/C(C)=C/c2ccc(Cn3ccnc3)cc2)C1c1cccc([N+](=O)[O-])c1 (stereo not drawn) [Example 8, (E)-3-{4-(1-imidazolylmethyl)phenyl}-2-methyl-2-propen-1-yl methyl 1,4-dihydro-2,6-dimethyl-4-(3-nitro-phenyl)pyridine-3,5-dicarboxylate] | 28.9 | 10.8 | 18.8 | 18.9
9 | COC(=O)C1=C(C)NC(C)=C(C(=O)OC/C=C/c2ccc(Cn3cnnc3)cc2)C1c1cccc([N+](=O)[O-])c1 (stereo not drawn) [Example 9] | 78.8 | 6.5 | 5.9 | 11.1
10 | COC(=O)C1=C(C)NC(C)=C(C(=O)OC/C=C/c2ccc(Cn3cncn3)cc2)C1c1cccc([N+](=O)[O-])c1 (stereo not drawn) [Example 10, Methyl (E)-3-{4-(1,2,4-triazol-1-ylmethyl)phenyl}-2propen-1-yl 1,4-dihydro-2,6-dimethyl-4-(3-nitrophenyl)pyridine-3,5-dicarboxylate] | 24.4 | 2.1 | 5.0 | 5.5
11 | COC(=O)C1=C(C)NC(C)=C(C(=O)OC/C=C/c2ccc(Cn3cnnn3)cc2)C1c1cccc([N+](=O)[O-])c1 (stereo not drawn) [Example 11, Methyl (E)-3-{4-(1,2,3,4-tetrazol-1-ylmethyl)phenyl}-2-propen-1-yl 1,4-dihydro-2,6-dimethyl-4-(3-nitrophenyl)pyridine-3,5-dicarboxylate] | 31.1 | 1.3 | 2.9 | 7.1
12 | COC(=O)C1=C(C)NC(C)=C(C(=O)OC/C=C/c2ccc(Cn3ccnc3)cc2)C1c1cccc(Cl)c1Cl (stereo not drawn) [Example 12, (E)-3-{4-(1-imidazolylmethyl)phenyl}-2-propen-1-yl methyl 1,4-dihydro-2,6-dimethyl-4-(2,3-dichlorophenyl)pyridine-3,5-dicarboxylate] | 51.8 | 7.3 | 11.4 | 10.3
13 | COC(=O)C1=C(C)NC(C)=C(C(=O)OC/C(F)=C/c2ccc(Cn3ccnc3)cc2)C1c1cccc([N+](=O)[O-])c1 (stereo not drawn) [Example 13, (Z)-3-{4-(1-imidazolylmethyl)phenyl}-2-fluoro-2-propen-1-yl methyl 1,4-dihydro-2,6-dimethyl-4-(3-nitrophenyl)pyridine-3,5-dicarboxylate] | 49.6 | 10.9 | 17.4 | 6.3
14 | CC1=C(C(=O)OC/C=C/c2ccccc2)C(c2cccc([N+](=O)[O-])c2)C(C(=O)OC/C=C/c2ccc(Cn3ccnc3)cc2)=C(C)N1 (stereo not drawn) [Example 14, (E)-cinnamyl (E)-3-{4-(1-imidazolylmethyl)phenyl}-2-propen-1-yl 1,4-dihydro-2,6-dimethyl-4-(3-nitrophenyl)pyridine-3,5-dicarboxylate] | 44.7 | 4.3 | 42.0 | 69.6
15 | COCCOC(=O)C1=C(C)NC(C)=C(C(=O)OC/C=C/c2ccc(Cn3ccnc3)cc2)C1c1cccc([N+](=O)[O-])c1 (stereo not drawn) [Example 16, (E)-3-{4-(1-imidazolylmethyl)phenyl}-2-propen-1-yl 2-methoxyethyl 1,4-dihydro-2,6-dimethyl-4-(3-nitrophenyl)pyridine-3,5-dicarboxylate] | 42.4 | 7.1 | 33.7 | 24.7
16 | COC(=O)C1=C(C)NC(C)=C(C(=O)OC/C=C/c2ccc(Cn3ccnc3)cc2)C1c1cccc(C(F)(F)F)c1 (stereo not drawn) [Example 17, (E)-3-{4-(1-imidazolylmethyl)phenyl}-2-propen-1-yl methyl 1,4-dihydro-2,6-dimethyl-4-(3-trifluoromethylphenyl)pyridine-3,5-dicarboxylate] | 39.7 | 10.5 | 37.8 | 55.0
17 | COC(=O)C1=C(C)NC(C)=C(C(=O)OC/C=C/c2ccc(Cn3ccnc3)cc2)C1c1ccccc1C#N (stereo not drawn) [Example 18, (E)-3-{4-(1-imidazolylmethyl)phenyl}-2-propen-1-yl methyl 1,4-dihydro-2,6-dimethyl-4-(2-cyanophenyl)pyridine-3,5-dicarboxylate] | 48.6 | 8.8 | 30.4 | 61.8
18 | COC(=O)C1=C(C)NC(C)=C(C(=O)OC/C=C/c2ccccc2Cn2ccnc2)C1c1cccc([N+](=O)[O-])c1 (stereo not drawn) [Example 20, (E)-3-{2-(1-imidazolylmethyl)phenyl}-2-propen-1-yl methyl 1,4-dihydro-2,6-dimethyl-4-(3-nitrophenyl)pyridine-3,5-dicarboxylate] | 0 | 9.5 | 30.4 | 32.3
19 | COC(=O)C1=C(C)NC(C)=C(C(=O)OC/C=C/c2cccc(Cn3ccnc3)c2)C1c1cccc([N+](=O)[O-])c1 (stereo not drawn) [Example 21, (E)-3-{3-(1-imidazolylmethyl)phenyl}-2-propen-1-yl methyl 1,4-dihydro-2,6-dimethyl-4-(3-nitrophenyl)pyridine-3,5-dicarboxylate] | 25.4 | 17.3 | 37.6 | 29.5
